Ten compounds from ChEMBL document CHEMBL1201862, “PubChem BioAssay data set” (2004) can be followed below.

Holding throughout (assay): NCI tumour cell line growth inhibition, 48 h
Assay [1] relates to T47D.
Assay [2] relates to UACC-257.
The test system of assay [3] is MDA-MB-231.
Assay [4] has as its system HT-29.
Assay [5] relates to M14.
The test system of assay [6] is HOP-62.
For assay [7], the system named is TK-10.
For assay [8], the system named is SF-295.
The subject of assay [9] is OVCAR-4.
Assay [10] deals with Hs-578T.
Assay [11] relates to LOX IMVI.
The test system of assay [12] is NCI-H226.
Assay [13] concerns SN12C.
The test system of assay [14] is OVCAR-8.
For assay [15], the system named is SK-OV-3.
Assay [16] has as its system HCT-116.
The test system of assay [17] is DU-145.
In assay [18] the test system is KM12.
In assay [19] the test system is SK-MEL-28.
The subject of assay [20] is K562.

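96-well plates; 48 h exposure; 5 concentrations. Endpoints by linear interpolation between flanking doses. Not reached: highest tested concentration assigned. GI50 marks 50% less growth.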 Calls of active or inactive are those of the source. Cut-off read from the data, not from the text of the source: active = GI50 up to about 1.1 µM and inactive = higher. Where only a bound is given, the exact number is not on record here.

Consider `N#Cc1nc(CCc2nc(C#N)c(N)o2)oc1N`, for which the GI50 in assay [1], in assay [2], in [3], in assay [4], in assay [5] and in assay [6] was > 10 µM (inactive) throughout. In addition, the GI50 in [7], in [8], in assay [9], in [10], in assay [11] and in [12] was > 10 µM (inactive) each time. The GI50 in assay [13], in assay [14], in assay [15], in assay [16], in [17] and in assay [18] was > 10 µM (inactive) throughout. Besides, the GI50 in [19] and in [20] was > 10 µM (inactive) each time.

Regarding `COc1ccc2c(c1)-c1c(c3ccccc3n1CCN1CCCCC1)CC2`, the GI50 in assay [1] is 18.9 µM (inactive); in assay [2], 22.4 µM (inactive); in [3], 14.3 µM (inactive); in assay [4], 10.3 µM (inactive); in [5] it was 5.47 µM (inactive); in assay [6], 8.79 µM (inactive). Moreover, the GI50 in [7] was 20.3 µM (inactive); in assay [8] it was 5.52 µM (inactive); in assay [9], 25.6 µM (inactive); in assay [10], 9.82 µM (inactive); in assay [11], 16.3 µM (inactive); in [12], 17.2 µM (inactive). Also, the GI50 in [13] was 22.4 µM (inactive); in assay [14], 4.43 µM (inactive); in [15], 24.2 µM (inactive); in assay [16] it was 13.1 µM (inactive); in assay [17] it was 53.8 µM (inactive); in assay [18], 6.07 µM (inactive). The figures for the GI50 in [19] and in assay [20] were 30.2 µM (inactive) and 11.9 µM (inactive), respectively.

For the compound `CC(C)OC(=O)c1ccc(CCC2=CC(=O)C=CC2=O)cc1`, the GI50 in assay [1] was 2.17 µM (inactive); in assay [2] it was 12.1 µM (inactive); in assay [3], 8.93 µM (inactive); in [4] it was 18.1 µM (inactive); in assay [5], 15.2 µM (inactive); in assay [6] it was 20.3 µM (inactive). Besides, the GI50 in assay [7] is 9.73 µM (inactive); in [8], 29.4 µM (inactive); in [9], 14.8 µM (inactive); in [10], 13 µM (inactive); in assay [11], 4.1 µM (inactive); in assay [12], 15.9 µM (inactive). Moreover, the GI50 is 11.3 µM (inactive) in assay [13]; 7.21 µM (inactive) in assay [14]; 34.8 µM (inactive) in [15]; 11.8 µM (inactive) in assay [16]; 15.2 µM (inactive) in [17]; 12.2 µM (inactive) in [18]. The GI50 in [19] was 13.5 µM (inactive); in [20] it was 3.04 µM (inactive).

Take `COc1ccc(/N=N/c2c(-c3c(OC)cc4occc4c3OC)[nH]c(=O)c(C#N)c2C)cc1`: the GI50 in [1], in assay [2], in assay [3], in assay [4], in assay [5] and in assay [6] was > 100 µM (inactive) in each case. The GI50 in assay [7], in assay [8], in [9], in assay [10], in assay [11] and in assay [12] was > 100 µM (inactive) each time. The GI50 in assay [13], in assay [14], in assay [15], in assay [16], in assay [17] and in [18] was > 100 µM (inactive) each time. The GI50 in assay [19] and in assay [20] was > 100 µM (inactive) throughout.

Take `CC(CCC(=O)O)(c1cc(Br)c(O)c(Br)c1)c1cc(Br)c(O)c(Br)c1`: the GI50 is 29.9 µM (inactive) in assay [1]; 76 µM (inactive) in assay [2]; 94.8 µM (inactive) in [3]; 93.1 µM (inactive) in [4]; 33.3 µM (inactive) in assay [5]; 96.2 µM (inactive) in assay [6]. The GI50 was > 100 µM (inactive) in [7]; 98.4 µM (inactive) in assay [8]; > 100 µM (inactive) in assay [9]; > 100 µM (inactive) in [10]; 45.5 µM (inactive) in assay [11]; 31.3 µM (inactive) in [12]. Also, the GI50 in [13] was > 100 µM (inactive); in assay [14], 78.2 µM (inactive); in assay [15], > 100 µM (inactive); in assay [16], 50.4 µM (inactive); in assay [17], 70.3 µM (inactive); in [18] it was 45.1 µM (inactive). In addition, the GI50 in assay [19] was 45 µM (inactive); in assay [20] it was 71.3 µM (inactive).

`NCCNc1nc(N2CCCC2)c2nc(Cl)c(NCc3ccccc3)nc2n1`: the GI50 in assay [1] is 1.66 µM (inactive); in assay [2] it was 1.9 µM (inactive); in [3] it was 1.33 µM (inactive); in assay [4], 1.95 µM (inactive); in assay [5], 1.67 µM (inactive); in assay [6], 1.67 µM (inactive). The GI50 in [7] was 1.67 µM (inactive); in assay [8], 1.86 µM (inactive); in [9] it was 2.16 µM (inactive); in assay [10], 2.53 µM (inactive); in assay [11], 1.56 µM (inactive); in [12], 3.15 µM (inactive). The GI50 in assay [13] is 1.52 µM (inactive); in [14], 1.76 µM (inactive); in assay [15], 1.82 µM (inactive); in [16], 1.49 µM (inactive); in assay [17] it was 1.61 µM (inactive); in assay [18], 1.71 µM (inactive). Also, the values for the GI50 in [19] and in [20] were 1.79 µM (inactive) and 0.122 µM (active), respectively.

As to `O=[N+]([O-])/C(C(Cl)=C(Cl)Cl)=C(/Cl)SCc1ccccc1`, the GI50 in [1] was 14.6 µM (inactive); in [2], 3.39 µM (inactive); in assay [3] it was 2.3 µM (inactive); in assay [4] it was 11.5 µM (inactive); in assay [5], 1.83 µM (inactive); in assay [6], 15.2 µM (inactive). Also, the GI50 in [7] is 5.86 µM (inactive); in [8], 34.4 µM (inactive); in assay [9], 2.85 µM (inactive); in [10], 4.48 µM (inactive); in assay [11], 11.3 µM (inactive); in assay [12], 25.2 µM (inactive). Also, the GI50 was 3.61 µM (inactive) in assay [13]; 1.34 µM (inactive) in assay [14]; 21.2 µM (inactive) in assay [15]; 1.82 µM (inactive) in [16]; 17.3 µM (inactive) in assay [17]; 18.8 µM (inactive) in assay [18]. Moreover, the GI50 in assay [19] is 5.65 µM (inactive); in assay [20], 1.15 µM (inactive).

Turning to `c1ccc(C2=NN(c3nc4ccccc4s3)C3(CCCCC3)N2)nc1`, the GI50 in assay [1] is 7.64 µM (inactive); in assay [2], 16.7 µM (inactive); in assay [3], 21.6 µM (inactive); in assay [4], 19.9 µM (inactive); in assay [5], 21.4 µM (inactive); in assay [6], 28.9 µM (inactive). The GI50 was 21.8 µM (inactive) in assay [7]; 27.8 µM (inactive) in [8]; 24.8 µM (inactive) in [9]; 31.7 µM (inactive) in assay [10]; 20.1 µM (inactive) in assay [11]; 19.4 µM (inactive) in assay [12]. Further, the GI50 is 19.7 µM (inactive) in assay [13]; 31.8 µM (inactive) in assay [14]; > 100 µM (inactive) in assay [15]; 26.4 µM (inactive) in assay [16]; 35.7 µM (inactive) in assay [17]; 22 µM (inactive) in [18]. The GI50 is 44.3 µM (inactive) in [19] and 16.6 µM (inactive) in [20].

In the case of `O=C(CNS(=O)(=O)Cc1ccccc1)NNc1ccccc1`, the GI50 in assay [1] is > 42.3 µM (inactive); in assay [2] it was > 78.2 µM (inactive); in [3], > 100 µM (inactive); in assay [4], > 100 µM (inactive); in [5] it was > 63.7 µM (inactive); in [6], > 100 µM (inactive). Besides, the GI50 in assay [7] is > 100 µM (inactive); in [8], 4.02 µM (inactive); in assay [9] it was > 100 µM (inactive); in [10], > 100 µM (inactive); in assay [11] it was 1.85 µM (inactive); in [12], > 100 µM (inactive). For the same compound, the GI50 in assay [13] is > 100 µM (inactive); in [14] it was > 100 µM (inactive); in assay [15] it was > 100 µM (inactive); in assay [16] it was > 100 µM (inactive); in assay [17], > 100 µM (inactive); in [18], 6.1 µM (inactive). In addition, the GI50 in assay [19] was > 100 µM (inactive); in assay [20], 2.5 µM (inactive).

Consider `CC[N+]1(C)CCC(O)(/C=C/c2ccc(OC)cc2)C(C(=O)/C=C/c2ccc(OC)cc2)C1` (stereo not given), for which the GI50 in [1] was 5.86 µM (inactive); in [2] it was 17.4 µM (inactive); in [3] it was 23.9 µM (inactive); in assay [4], 13.2 µM (inactive); in assay [5] it was 10.4 µM (inactive); in assay [6], 19.3 µM (inactive). The GI50 in assay [7] is 2.96 µM (inactive); in [8], 18.6 µM (inactive); in assay [9], 24.7 µM (inactive); in assay [10], 11.7 µM (inactive); in assay [11] it was 2.64 µM (inactive); in assay [12], 28 µM (inactive). In addition, the GI50 in assay [13] is 21.3 µM (inactive); in assay [14], 23.3 µM (inactive); in [15], 19.1 µM (inactive); in assay [16], 12.7 µM (inactive); in [17], 14.2 µM (inactive); in assay [18], 4.13 µM (inactive). Moreover, the GI50 in [19] was 15.3 µM (inactive); in assay [20], 2.06 µM (inactive).
